Data: patent US12410160B2 (Gilead Sciences, Inc., priority 2021, dated 2025)
Like-named read-outs stand apart in the source and are kept apart here.

Key:
human KHK-C = human KHK-C (Homo sapiens (Human), UniProt P50053); test: KHK Biochemical Assay (IC50), ADP-Glo, KHK-C; settings: average of at least two separate assays
Outline: (§1)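 His-tagged enzyme expressed in BL21 (DE3), Ni-NTA purified. Compounds, serially diluted 1:3 in DMSO, pre-incubated 30 min with enzyme in 50 mM Hepes pH 7.4, 140 mM KCl, 5 mM MgCl2, 0.01% Triton-X, then ATP and fructose added; 4 h at room temperature. ADP formation read by ADP-Glo luminescence.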

human KHK-A = human KHK-A (Homo sapiens (Human), UniProt P50053); test: KHK Biochemical Assay (IC50), ADP-Glo, KHK-A; settings: average of at least two separate assays
Sequence of human KHK-A (P50053 other isoform, or with tags, fused parts or gaps): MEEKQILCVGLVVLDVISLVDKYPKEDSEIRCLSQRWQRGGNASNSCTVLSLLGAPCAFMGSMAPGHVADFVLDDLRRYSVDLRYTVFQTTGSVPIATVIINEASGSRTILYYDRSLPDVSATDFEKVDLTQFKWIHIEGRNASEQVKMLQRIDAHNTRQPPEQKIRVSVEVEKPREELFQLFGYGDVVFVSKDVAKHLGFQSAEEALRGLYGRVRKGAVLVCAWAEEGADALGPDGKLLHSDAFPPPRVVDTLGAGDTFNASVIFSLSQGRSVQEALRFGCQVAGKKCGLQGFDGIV
Outline: as §1

[1] = target: KHK-C expressed in NRK-52E cells (Homo sapiens (Human), UniProt P50053); test: KHK-C Cell-based Assay (EC50), NRK CTG, fructose-mediated ATP-depletion
Sequence of KHK-C expressed in NRK-52E cells (P50053 whole entry): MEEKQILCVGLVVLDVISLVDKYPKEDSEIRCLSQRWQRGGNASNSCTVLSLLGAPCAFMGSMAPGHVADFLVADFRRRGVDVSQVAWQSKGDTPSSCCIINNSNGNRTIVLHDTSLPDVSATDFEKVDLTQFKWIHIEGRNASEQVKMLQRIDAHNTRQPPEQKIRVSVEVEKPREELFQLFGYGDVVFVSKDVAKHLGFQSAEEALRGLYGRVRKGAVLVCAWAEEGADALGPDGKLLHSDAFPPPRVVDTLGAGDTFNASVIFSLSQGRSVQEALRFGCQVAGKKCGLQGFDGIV

Sequence of human KHK-C (P50053 whole entry): as above

Row | Molecule | IC50 (human KHK-C; ADP-Glo) [nM] | IC50 (human KHK-A; ADP-Glo) [nM] | EC50 [1] [nM] | IC50 (human KHK-C) [nM] | EC50 ([1]; read-out: NRK CTG EC50, NRK-52E cells, Cell-Titer Glo, 25 mM fructose) [nM] | IC50 (human KHK-A) [nM]
1 | CC(=O)N1C[C@H](C(=O)O)[C@@H](c2cccc(-c3nc(N4CC[C@@H]4C)nc4c3CCC4)c2)C1 (mixture of isomers) [Example 145, (3R,4S)-1-acetyl-4-(3-(2-((S)-2-methylazetidin-1-yl)-6,7-dihydro-5H-cyclopenta[d]pyrimidin-4-yl)phenyl)pyrrolidine-3-carboxylic acid] | 125 | 83.7 | > 5000 | – | – | –
2 | C[C@H]1CCN1c1nc2c(c(-c3ccc4c(c3)[C@]3(C[C@@H]3C#N)C(=O)N4)n1)CCC2 (mixture of isomers) [Example 411, rac-(1R,2S)-5′-(2-((S)-2-methylazetidin-1-yl)-6,7-dihydro-5H-cyclopenta[d]pyrimidin-4-yl)-2′-oxospiro[cyclopropane-1,3′-indoline]-2-carbonitrile] | – | – | 473 | 117 | – | 66.3
3 | C[C@H]1CCN1c1nc2c(c(-c3ccc4c(c3)[C@]3(C[C@H]3C(N)=O)C(=O)N4)n1)CCC2 (mixture of isomers) [Example 412, rac-(1R,2R)-5′-(2-((S)-2-methylazetidin-1-yl)-6,7-dihydro-5H-cyclopenta[d]pyrimidin-4-yl)-2′-oxospiro[cyclopropane-1,3′-indoline]-2-carboxamide] | – | – | 406 | 29.2 | – | 57.3
4 | C[C@H]1CCN1c1nc2c(c(-c3ccc4c(c3)[C@]3(C[C@@H]3C(N)=O)C(=O)N4)n1)CCC2 (mixture of isomers) [Example 413, rac-(1R,2S)-5′-(2-((S)-2-methylazetidin-1-yl)-6,7-dihydro-5H-cyclopenta[d]pyrimidin-4-yl)-2′-oxospiro[cyclopropane-1,3′-indoline]-2-carboxamide] | – | – | 750 | 74.4 | – | 65.4
5 | COC(=O)[C@@H]1C[C@@]12C(=O)Nc1ccc(-c3nc(N4CC[C@@H]4C)nc4c3CCC4)cc12 (racemic) [Example 406, rac-methyl (1R,2R)-5′-(2-((S)-2-methylazetidin-1-yl)-6,7-dihydro-5H-cyclopenta[d]pyrimidin-4-yl)-2′-oxospiro[cyclopropane-1,3′-indoline]-2-carboxylate] | – | – | 397 | 1040 | – | 841
6 | COC(=O)[C@H]1C[C@@]12C(=O)Nc1ccc(-c3nc(N4CC[C@@H]4C)nc4c3CCC4)cc12 (racemic) [Example 407, rac-methyl (1R,2S)-5′-(2-((S)-2-methylazetidin-1-yl)-6,7-dihydro-5H-cyclopenta[d]pyrimidin-4-yl)-2′-oxospiro[cyclopropane-1,3′-indoline]-2-carboxylate] | – | – | 506 | 229 | – | 235
7 | C[C@H]1CCN1c1nc2c(c(-c3ccc4c(c3)[C@]3(C[C@H]3C(=O)O)C(=O)N4)n1)CCC2 (racemic) [Example 408, rac-(1R,2R)-5′-(24(8)-2-methylazetidin-1-yl)-6,7-dihydro-5H-cyclopenta[d]pyrimidin-4-yl)-2′-oxospiro[cyclopropane-1,3′-indoline]-2-carboxylic acid] | – | – | > 5000 | 100 | – | 158
8 | C[C@H]1CCN1c1nc2c(c(-c3ccc4c(c3)[C@]3(C[C@@H]3C(=O)O)C(=O)N4)n1)CCC2 (racemic) [Example 409, rac-(1R,28)-5′-(24(8)-2-methylazetidin-1-yl)-6,7-dihydro-5H-cyclopenta[d]pyrimidin-4-yl)-2′-oxospiro[cyclopropane-1,3′-indoline]-2-carboxylic acid] | – | – | > 5000 | 34.3 | – | 41
9 | C[C@H]1CCN1c1nc2c(c(-c3ccc4c(c3)C[C@@H]3[C@H](C(N)=O)[C@H]43)n1)CCC2 (relative stereo) [Example 138, (1S,1aR*,6aS*)-4-(2-((S)-2-methylazetidin-1-yl)-6,7-dihydro-5H-cyclopenta[d]pyrimidin-4-yl)-1,1a,6,6a-tetrahydrocyclopropa[a]indene-1-carboxamide] | 220 | 294 | 1800 | – | – | –
10 | CC(=O)N1C[C@H](C(N)=O)[C@@H](c2cccc(-c3nc(N4CC[C@@H]4C)nc4c3CCC4)c2)C1 (relative stereo) [Example 146, (3R*,4S*)-1-acetyl-4-(3-(2-((S)-2-methylazetidin-1-yl)-6,7-dihydro-5H-cyclopenta[d]pyrimidin-4-yl)phenyl)pyrrolidine-3-carboxamide] | 116 | 118 | 423 | – | – | –
11 | C[C@H]1[C@H](C(N)=O)CN1c1nc2c(c(-c3ccc(C(N)=O)cc3)n1)CCC2 (relative stereo) [Example 266, (rac)-(2S*,3R*)-1-(4-(4-carbamoylphenyl)-6,7-dihydro-5H-cyclopenta[d]pyrimidin-2-yl)-2-methylazetidine-3-carboxamide] | > 5000 | > 5000 | > 5000 | – | – | –
12 | C[C@H]1CCN1c1nc2c(c(-c3ccc(C(N)=O)cn3)n1)CCC2 [Example 752, 6-[2-[(2S)-2-methylazetidin-1-yl]-6,7-dihydro-5H-cyclopenta[d]pyrimidin-4-yl]pyridine-3-carboxamide] | – | – | 223 | 79.2 | – | –
13 | (1S)-1-[4-[7,7-difluoro-2-[(2S)-2-methylazetidin-1-yl]-5,6-dihydrocyclopenta[d]pyrimidin-4-yl]phenyl]-2,2-difluoro-ethanamine [Example 652] | – | – | – | 23.6 | 193 | –

The remaining molecules from weak to strong by EC50 [1], led by results:

Row | IC50 (human KHK-C; ADP-Glo) [nM] | IC50 (human KHK-A; ADP-Glo) [nM] | EC50 [1] [nM] | IC50 (human KHK-C) [nM] | EC50 ([1]; read-out: NRK CTG EC50, NRK-52E cells, Cell-Titer Glo, 25 mM fructose) [nM] | Molecule | IC50 (human KHK-A) [nM]
14 | – | – | 162 | 25.4 | – | C[C@H](NS(C)(=O)=O)c1cccc(-c2nc(N3C[C@@H](O)[C@@H]3C)nc3c2CCC3(F)F)c1 [Example 745, N-[(1S)-1-[3-[7,7-difluoro-2-[(2S,3R)-3-hydroxy-2-methyl-azetidin-1-yl]-5,6-dihydrocyclopenta[d]pyrimidin-4-yl]phenyl]ethyl]methanesulfonamide] | –
15 | – | – | 142 | 17.2 | – | C[C@H](NS(C)(=O)=O)c1ccc(-c2nc(N3C[C@@H](O)[C@@H]3C)nc3c2CCC3(F)F)cc1 [Example 744, N-[(1S)-1-[4-[7,7-difluoro-2-[(2S,3R)-3-hydroxy-2-methyl-azetidin-1-yl]-5,6-dihydrocyclopenta[d]pyrimidin-4-yl]phenyl]ethyl]methanesulfonamide] | –
16 | 90.3 | 216 | 100 | – | – | C[C@H]1CCN1c1nc2c(c(-c3ccc4c(c3)C[C@@H]3[C@@H](C(N)=O)[C@H]43)n1)CCC2 (relative stereo) [Example 137, (1R,1aR*,6aS*)-4-(2-((S)-2-methylazetidin-1-yl)-6,7-dihydro-5H-cyclopenta[d]pyrimidin-4-yl)-1,1a,6,6a-tetrahydrocyclopropa[a]indene-1-carboxamide] | –
17 | – | – | 85.9 | 23.2 | – | C[C@@H](NS(C)(=O)=O)c1ccc(-c2nc(N3CC[C@@H]3C)nc3c2CCC3(F)F)cc1 [Example 748, N-[(1R)-1-[4-[7,7-difluoro-2-[(2S)-2-methylazetidin-1-yl]-5,6-dihydrocyclopenta[d]pyrimidin-4-yl]phenyl]ethyl]methanesulfonamide] | –
18 | – | – | 69.7 | 18.8 | – | C[C@@H](NS(C)(=O)=O)c1cccc(-c2nc(N3CC[C@@H]3C)nc3c2CCC3(F)F)c1 [Example 749, N-[(1R)-1-[3-[7,7-difluoro-2-[(2S)-2-methylazetidin-1-yl]-5,6-dihydrocyclopenta[d]pyrimidin-4-yl]phenyl]ethyl]methanesulfonamide] | –
19 | – | – | 47.5 | 40.8 | – | C[C@H]1CCN1c1nc2c(c(-c3ccc4c(c3)[C@]3(C[C@H]3C#N)C(=O)N4)n1)CCC2 (mixture of isomers) [Example 410, rac-(1R,2R)-5′-(2-((S)-2-methylazetidin-1-yl)-6,7-dihydro-5H-cyclopenta[d]pyrimidin-4-yl)-2′-oxospiro[cyclopropane-1,3′-indoline]-2-carbonitrile] | 37.6
20 | – | – | 33.1 | 10.7 | – | C[C@H]1CCN1c1nc2c(c(-c3ccc4c(c3)NCCNC4=O)n1)CCC2 [Example 753, 8-[2-[(2S)-2-methylazetidin-1-yl]-6,7-dihydro-5H-cyclopenta[d]pyrimidin-4-yl]-1,2,3,4-tetrahydro-1,4-benzodiazepin-5-one] | –
21 | – | – | 17.9 | 10.8 | – | C[C@H](NS(C)(=O)=O)c1cccc(-c2nc(N3CC[C@@H]3C)nc3c2CCC3(F)F)c1 [Example 751, N-[(1S)-1-[3-[7,7-difluoro-2-[(2S)-2-methylazetidin-1-yl]-5,6-dihydrocyclopenta[d]pyrimidin-4-yl]phenyl]ethyl]methanesulfonamide] | –
22 | – | – | 15.1 | 6.1 | – | C[C@H]1CCN1c1nc(-c2cc(F)c3c(c2)OCCNC3=O)c2c(n1)C(F)(F)CC2 [Example 747, 8-[7,7-difluoro-2-[(2S)-2-methylazetidin-1-yl]-5,6-dihydrocyclopenta[d]pyrimidin-4-yl]-6-fluoro-3,4-dihydro-2H-1,4-benzoxazepin-5-one] | –
23 | – | – | 14.8 | 9 | – | C[C@H](NS(C)(=O)=O)c1ccc(-c2nc(N3CC[C@@H]3C)nc3c2CCC3(F)F)cc1 [Example 750, N-[(1S)-1-[4-[7,7-difluoro-2-[(2S)-2-methylazetidin-1-yl]-5,6-dihydrocyclopenta[d]pyrimidin-4-yl]phenyl]ethyl]methanesulfonamide] | –
24 | – | – | 6.9 | 2.3 | – | C[C@H]1CCN1c1nc(-c2ccc3c(c2)OCCC3NS(C)(=O)=O)c2c(n1)C(F)(F)CC2 (stereo partly drawn) [Example 759, N-[7-[7,7-difluoro-2-[(2S)-2-methylazetidin-1-yl]-5,6-dihydrocyclopenta[d]pyrimidin-4-yl]chroman-4-yl]methanesulfonamide] | –
